Literature values as cited in patent US20070238696A1, “Dosage unit for cardioprotection” (priority 2000, published 2007).

Settings: men, median intake 419 IU/day compared to median intake 6 IU/day; followed for four years

## vitamin E
  relative risk reduction: 44%
